The assay addresses T1, human GHS-R 1a (Homo sapiens, UniProt Q92847).
T1 construct: expressed in transfected cells; host or cells: LLC PK-1 porcine renal epithelial cells (ECACC No. 86121112), isolated plasma membranes
The experiment in a line: GHS-R 1a receptor-ligand binding assay (membrane preparations from transfected LLC PK-1 cells). As to conditions: displacement of 125I-His9-ghrelin (60 pM); membranes of LLC PK-1 cells transfected with human GHS-R 1a; mean of at least two independent experiments in triplicates. The procedure: (J. Med. […] Med. Chem. 2003, 46: 1191-1203), were incubated in homogenization buffer HB [50 mM Tris (pH 7.3), 5 mM MgCl2, 2.5 mM EDTA, and 30 μg/mL bacitracin (Sigma)] for 60 min at 25° C. (steady-state conditions) with 60 pM ^125I-[…]-ghrelin (Amersham) in the presence or absence of competing compounds (compounds of the invention). […] Nonspecific binding was defined using an excess (10^-6 M) of ghrelin. The binding reaction was stopped by addition of 4 mL of ice-cold HB followed by rapid filtration over Whatman GP/C filters presoaked with 0.5% polyethyleneimine to prevent excessive binding of radioligand to the filters. […] IC50 values given are the mean of at least two independent experiments performed in triplicates.
T1 sequence (Q92847 whole entry): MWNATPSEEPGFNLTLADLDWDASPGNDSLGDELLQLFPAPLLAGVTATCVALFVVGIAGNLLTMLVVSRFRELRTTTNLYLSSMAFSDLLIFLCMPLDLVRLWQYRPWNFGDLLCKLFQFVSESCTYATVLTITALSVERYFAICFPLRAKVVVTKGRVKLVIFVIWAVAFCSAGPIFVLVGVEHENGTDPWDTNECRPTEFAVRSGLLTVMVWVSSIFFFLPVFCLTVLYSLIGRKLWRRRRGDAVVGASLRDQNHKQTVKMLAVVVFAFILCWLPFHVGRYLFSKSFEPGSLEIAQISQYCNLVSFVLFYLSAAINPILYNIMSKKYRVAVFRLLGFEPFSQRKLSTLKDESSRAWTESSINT
The molecule `COc1ccc(Cn2c(CCc3ccccc3)nnc2[C@@H](Cc2c[nH]c3ccccc23)NC(=O)Cc2ccccn2)cc1` [compound 51, (R)—N-(1-(4-(4-methoxybenzyl)-5-phenethyl-4H-1,2,4-triazol-3-yl)-2-(1H-indol-3-yl)ethyl)-2-(pyridin-2-yl)acetamide] came in with an IC50 of 3 nM.
Under `COc1ccc(Cn2c(CCc3ccccc3)nnc2[C@@H](Cc2c[nH]c3ccccc23)NC(=O)C2CCCCC2)cc1` [compound 53, (R)—N-(1-(4-(4-methoxybenzyl)-5-phenethyl-4H-1,2,4-triazol-3-yl)-2-(1H-indol-3-yl)ethyl)cyclohexanecarboxamide] stands 18 nM.
Under `O=C(N[C@H](Cc1c[nH]c2ccccc12)c1nnc(CCc2c[nH]c3ccccc23)n1Cc1ccccc1)C1CCNCC1` [compound 54, (R)—N-(1-(5-(2-(1H-indol-3-yl)ethyl)-4-benzyl-4H-1,2,4-triazol-3-yl)-2-(1H-indol-3-yl)ethyl)piperidine-4-carboxamide] stands 35 nM; under `COc1ccc(Cn2c(CCc3ccccc3)nnc2[C@@H](Cc2c[nH]c3ccccc23)NC(=O)CCN)cc1` [compound 56, (R)—N-(1-(4-(4-methoxybenzyl)-5-phenethyl-4H-1,2,4-triazol-3-yl)-2-(1H-indol-3-yl)ethyl)-3-aminopropanamide], 59 nM; under `COc1ccc(Cn2c(CCc3ccccc3)nnc2[C@@H](Cc2c[nH]c3ccccc23)NC(=O)[C@H](C)N)cc1` [compound 57, (S)—N—((R)-1-(4-(4-methoxybenzyl)-5-phenethyl-4H-1,2,4-triazol-3-yl)-2-(1H-indol-3-yl)ethyl)-2-aminopropanamide], 140 nM.
In the case of `COc1ccc(Cn2c(CCc3ccccc3)nnc2[C@@H](Cc2c[nH]c3ccccc23)NC(=O)Cc2cccnc2)cc1` [compound 58, (R)—N-(1-(4-(4-methoxybenzyl)-5-phenethyl-4H-1,2,4-triazol-3-yl)-2-(1H-indol-3-yl)ethyl)-2-(pyridin-3-yl)acetamide], the IC50 was found to be 29 nM.
Under `COc1ccc(Cn2c(CCc3ccccc3)nnc2[C@@H](Cc2c[nH]c3ccccc23)NC(=O)CCc2cccnc2)cc1` [compound 59, (R)—N-(1-(4-(4-methoxybenzyl)-5-phenethyl-4H-1,2,4-triazol-3-yl)-2-(1H-indol-3-yl)ethyl)-3-(pyridin-3-yl)propanamide] stands 173 nM; under `O=C(Cc1ccccn1)N[C@H](Cc1c[nH]c2ccccc12)c1nnc(CCc2c[nH]c3ccccc23)n1Cc1ccccc1` [compound 60, (R)—N-(1-(5-(2-(1H-indol-3-yl)ethyl)-4-benzyl-4H-1,2,4-triazol-3-yl)-2-(1H-indol-3-yl)ethyl)-2-(pyridin-2-yl)acetamide], 61 nM; under `COc1ccc(Cn2c(CCc3c[nH]c4ccccc34)nnc2[C@@H](Cc2c[nH]c3ccccc23)NC(=O)Cc2ccccn2)c(OC)c1` [compound 61, (R)—N-(1-(5-(2-(1H-indol-3-yl)ethyl)-4-(2,4-dimethoxybenzyl)-4H-1,2,4-triazol-3-yl)-2-(1H-indol-3-yl)ethyl)-2-(pyridin-2-yl)acetamide], 34 nM.
Molecule `COc1ccc(Cn2c(CCc3ccccc3)nnc2[C@@H](Cc2c[nH]c3ccccc23)NC(=O)C2CCNCC2)c(OC)c1` [compound 62, (R)—N-(1-(4-(2,4-dimethoxybenzyl)-5-phenethyl-4H-1,2,4-triazol-3-yl)-2-(1H-indol-3-yl)ethyl)piperidine-4-carboxamide] yielded an IC50 of 0.9 nM.
Under `COc1ccc(Cn2c(CCc3ccccc3)nnc2[C@@H](Cc2c[nH]c3ccccc23)NC(=O)[C@H]2CCCCN2)c(OC)c1` [compound 63, (R)—N—((R)-1-(4-(2,4-dimethoxybenzyl)-5-phenethyl-4H-1,2,4-triazol-3-yl)-2-(1H-indol-3-yl)ethyl)piperidine-2-carboxamide] stands 210 nM.
Under `COc1ccc(Cn2c(CCc3ccccc3)nnc2[C@@H](Cc2c[nH]c3ccccc23)NC(=O)c2ccncc2)c(OC)c1` [compound 65, (R)—N-(1-(4-(2,4-dimethoxybenzyl)-5-phenethyl-4H-1,2,4-triazol-3-yl)-2-(1H-indol-3-yl)ethyl)isonicotinamide] stands 58 nM.
In the case of `COc1ccc(Cn2c(CCc3ccccc3)nnc2[C@@H](Cc2c[nH]c3ccccc23)NC(=O)c2cnccn2)c(OC)c1` [compound 66, (R)—N-(1-(4-(2,4-dimethoxybenzyl)-5-phenethyl-4H-1,2,4-triazol-3-yl)-2-(1H-indol-3-yl)ethyl)pyrazine-2-carboxamide] it was 8 nM.
`COc1ccc(Cn2c(CCc3ccccc3)nnc2[C@@H](Cc2c[nH]c3ccccc23)NC(=O)C2CNCCN2)c(OC)c1` (stereo partly shown) [compound 67] came in with an IC50 of 35 nM.
Under `COc1ccc(Cn2c(CCc3ccccc3)nnc2[C@@H](Cc2c[nH]c3ccccc23)NC(=O)[C@@H]2CCCN2)c(OC)c1` [compound 68, (S)—N—((R)-1-(4-(2,4-dimethoxybenzyl)-5-phenethyl-4H-1,2,4-triazol-3-yl)-2-(1H-indol-3-yl)ethyl)pyrrolidine-2-carboxamide] stands 44 nM; under `COc1ccc(Cn2c(CCc3c[nH]c4ccccc34)nnc2[C@@H](Cc2c[nH]c3ccccc23)NC(=O)CN)c(OC)c1` [compound 69, (R)—N-(1-(5-(2-(1H-indol-3-yl)ethyl)-4-(2,4-dimethoxybenzyl)-4H-1,2,4-triazol-3-yl)-2-(1H-indol-3-yl)ethyl)-2-aminoacetamide], 38 nM.
`COc1ccc(Cn2c(CCc3c[nH]c4ccccc34)nnc2[C@@H](Cc2c[nH]c3ccccc23)NC(=O)[C@@H]2CCCN2)c(OC)c1` [compound 70, (S)—N—((R)-1-(5-(2-(1H-indol-3-yl)ethyl)-4-(2,4-dimethoxybenzyl)-4H-1,2,4-triazol-3-yl)-2-(1H-indol-3-yl)ethyl)pyrrolidine-2-carboxamide] returned an IC50 of 6 nM.
On to `COc1ccc(Cn2c(CCc3c[nH]c4ccccc34)nnc2[C@@H](Cc2c[nH]c3ccccc23)NC(=O)c2ccccn2)c(OC)c1` [compound 73, (R)—N-(1-(5-(2-(1H-indol-3-yl)ethyl)-4-(2,4-dimethoxybenzyl)-4H-1,2,4-triazol-3-yl)-2-(1H-indol-3-yl)ethyl)picolinamide], for which the IC50 is 1.8 nM.
`COc1ccc(Cn2c(CCc3ccccc3)nnc2[C@@H](Cc2c[nH]c3ccccc23)NC(=O)CN)c(OC)c1` [compound 75, (R)—N-(1-(4-(2,4-dimethoxybenzyl)-5-phenethyl-4H-1,2,4-triazol-3-yl)-2-(1H-indol-3-yl)ethyl)-2-aminoacetamide]: the IC50 came out at 140 nM.
In the case of `COc1ccc(Cn2c(CCc3ccccc3)nnc2[C@@H](Cc2c[nH]c3ccccc23)NC(=O)c2cnccn2)cc1` [compound 76, (R)—N-(1-(4-(4-methoxybenzyl)-5-phenethyl-4H-1,2,4-triazol-3-yl)-2-(1H-indol-3-yl)ethyl)pyrazine-2-carboxamide] it was 14 nM; in that of `COc1ccc(Cn2c(CCc3ccccc3)nnc2[C@@H](Cc2c[nH]c3ccccc23)NC(=O)c2ccncc2)cc1` [compound 77, (R)—N-(1-(4-(4-methoxybenzyl)-5-phenethyl-4H-1,2,4-triazol-3-yl)-2-(1H-indol-3-yl)ethyl)isonicotinamide], 119 nM.
In the case of `COc1ccc(Cn2c(CCc3ccccc3)nnc2[C@@H](Cc2c[nH]c3ccccc23)NC(=O)C2CNCCN2)cc1` (stereo partly shown) [compound 78] it was 54 nM; in that of `COc1ccc(Cn2c(CCc3ccccc3)nnc2[C@@H](Cc2c[nH]c3ccccc23)NC(=O)c2ccccn2)cc1` [compound 79, (R)—N-(1-(4-(4-methoxybenzyl)-5-phenethyl-4H-1,2,4-triazol-3-yl)-2-(1H-indol-3-yl)ethyl)picolinamide], 0.7 nM; in that of `CCc1ccc(Cn2c(CCc3ccccc3)nnc2[C@@H](Cc2c[nH]c3ccccc23)NC(=O)Cc2ccccn2)cc1` [compound 82, (R)—N-(1-(4-(4-ethylbenzyl)-5-phenethyl-4H-1,2,4-triazol-3-yl)-2-(1H-indol-3-yl)ethyl)-2-(pyridin-2-yl)acetamide], 51 nM.
Under `CCc1ccc(Cn2c(CCc3ccccc3)nnc2[C@@H](Cc2c[nH]c3ccccc23)NC(=O)C2CCNCC2)cc1` [compound 83, (R)—N-(1-(4-(4-ethylbenzyl)-5-phenethyl-4H-1,2,4-triazol-3-yl)-2-(1H-indol-3-yl)ethyl)piperidine-4-carboxamide] stands 19 nM.
Regarding `CCc1ccc(Cn2c(CCc3ccccc3)nnc2[C@@H](Cc2c[nH]c3ccccc23)NC(=O)c2cnccn2)cc1` [compound 85, (R)—N-(1-(4-(4-ethylbenzyl)-5-phenethyl-4H-1,2,4-triazol-3-yl)-2-(1H-indol-3-yl)ethyl)pyrazine-2-carboxamide], the IC50 turned out to be 89 nM.
Under `COc1ccc(Cn2c(CCc3c[nH]c4ccccc34)nnc2[C@@H](Cc2c[nH]c3ccccc23)NC(=O)C2CCCCC2N)c(OC)c1` (stereo partly drawn) [compound 86, (R)—N-(1-(5-(2-(1H-indol-3-yl)ethyl)-4-(2,4-dimethoxybenzyl)-4H-1,2,4-triazol-3-yl)-2-(1H-indol-3-yl)ethyl)-2-cis-aminocyclohexanecarboxamide] stands 143 nM; under `COc1ccc(Cn2c(CCc3c[nH]c4ccccc34)nnc2[C@@H](Cc2c[nH]c3ccccc23)NC(=O)[C@H]2CCCNC2)cc1` [compound 87, (S)—N—((R)-1-(5-(2-(1H-indol-3-yl)ethyl)-4-(4-methoxybenzyl)-4H-1,2,4-triazol-3-yl)-2-(1H-indol-3-yl)ethyl)piperidine-3-carboxamide], 10 nM.

Values taken from patent US8710089B2, “Triazole derivatives as ghrelin analogue ligands of growth hormone secretagogue receptors” (Zentaris GmbH, priority 2005, dated 2014).
